The values that follow come from US20150005379A1, “[…] METHOD” (PeroxyChem LLC, priority 2013, published 2015).

For the assay, the system named is fecal coliform. The assay is described as follows: Fecal coliform count of wastewater at the contact chamber exit after peracetic acid dosing. Format: cell-based. To be noted: post-sand filter wastewater, 60 min average contact time. The method, then:
Wastewater was diverted post-sand filter treatment at a wastewater treatment plant into a rectangular weir disinfectant contact chamber. The flow rate of wastewater through the contact chamber was set at seven gallons per minute; the average contact time in the contact chamber was 60 minutes.
VigorOx® WWT peracetic acid (FMC Corporation; 15% peracetic acid, 23% hydrogen peroxide by weight) was dosed into the wastewater through Control Corporation lab grade pumps. In Comparative Experiment A, the PAA was introduced just prior to the wastewater's entrance into the contact chamber at a rate of 6.1 ppm. In Example 1, PAA was introduced just prior to the wastewater's entrance into the contact chamber at a rate of 1.5 ppm; and additionally at a point 50 minutes after the wastewater's entry into the contact chamber at a rate of 4.5 ppm. The fecal coliform count of the wastewater was measured at the point the wastewater exited from the contact chamber.

As for `CC(=O)OO` [PAA, peracetic acid], the “samples tested with no-detectable readings of coliform bacteria” value is reported as “about 35%” (Comparative Experiment A: PAA added at a sole point just prior to entrance into contact chamber, 6.1 ppm); “about 50%” (Example 1: PAA added at two points, 1.5 ppm just prior to entrance and 4.5 ppm at 50 minutes after entry).
